Source: US12122816B2, “Long acting peptide tyrosine tyrosine (PYY) analogs and methods of use” (Intarcia Therapeutics, Inc., priority 2020, dated 2024)
pEC50: −log10 of the molar value. Starred links: 1 amine or outer side, 2 acyl side, 3 side chain; linkers in the order of their positions; H or OH if unused. Positions of bridges follow the written chain, without caps; N, C: chain ends. Residues, ends and D or L forms follow the SMILES beside them. Groups on a side chain read outwards from the residue. No end group written: not given here. *: point of attachment. C19 diacid = O=C(O)CCCCCCCCCCCCCCCCCC(=O)*; γGlu = O=C(O)[C@H](CCC(=O)[*:2])N[*:1]

Key:
[1] = Solubility in DI water at room temperature (visual inspection); assay type: physicochemical; conditions: TFA salt form
Description: The analog polypeptides described herein were tested for solubility in saline or in aqueous (DI water) at room temperature. Samples were visually inspected for clarity of the sample, any appearance of turbidity or haziness.

[2] = Stability in water or saline (1 mg/ml) at 37° C., purity by LC/MS and HPLC; assay type: physicochemical; conditions: TFA salt form
human Y2 receptor = biological target: T1, human Y2 receptor (Homo sapiens, UniProt P49146); experiment: NPY receptor functional assay (cAMP, HEK-CNG cells, ACTOne membrane potential dye); assay type: cell-based; conditions: NPY2R pEC50, HEK-CNG cells; standard PYY(3-36); species (human or rat) not given
T1 sequence (P49146 1-381): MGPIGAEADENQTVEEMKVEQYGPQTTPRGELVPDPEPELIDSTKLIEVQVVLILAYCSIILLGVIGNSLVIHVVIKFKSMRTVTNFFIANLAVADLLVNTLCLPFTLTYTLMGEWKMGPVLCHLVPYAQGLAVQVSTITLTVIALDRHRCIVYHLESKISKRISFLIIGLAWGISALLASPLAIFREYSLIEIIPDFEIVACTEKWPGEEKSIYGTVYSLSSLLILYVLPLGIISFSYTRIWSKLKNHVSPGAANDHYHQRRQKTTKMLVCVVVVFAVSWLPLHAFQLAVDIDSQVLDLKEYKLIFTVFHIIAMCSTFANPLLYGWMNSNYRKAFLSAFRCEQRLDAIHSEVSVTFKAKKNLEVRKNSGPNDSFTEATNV
How it was run: (§1)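 HEK-CNG cells stably expressing each human receptor; peptides added in triplicate for 50 minutes at room temperature, with agonism read as decreased isoproterenol-induced membrane potential dye signal (final/initial read).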

human Y5 receptor = biological target: T2, human Y5 receptor (Homo sapiens, UniProt Q15761); experiment: as above; assay type: cell-based; conditions: NPY5R pEC50, HEK-CNG cells; standard NPY; species (human or rat) not given
T2 sequence (Q15761 1-445): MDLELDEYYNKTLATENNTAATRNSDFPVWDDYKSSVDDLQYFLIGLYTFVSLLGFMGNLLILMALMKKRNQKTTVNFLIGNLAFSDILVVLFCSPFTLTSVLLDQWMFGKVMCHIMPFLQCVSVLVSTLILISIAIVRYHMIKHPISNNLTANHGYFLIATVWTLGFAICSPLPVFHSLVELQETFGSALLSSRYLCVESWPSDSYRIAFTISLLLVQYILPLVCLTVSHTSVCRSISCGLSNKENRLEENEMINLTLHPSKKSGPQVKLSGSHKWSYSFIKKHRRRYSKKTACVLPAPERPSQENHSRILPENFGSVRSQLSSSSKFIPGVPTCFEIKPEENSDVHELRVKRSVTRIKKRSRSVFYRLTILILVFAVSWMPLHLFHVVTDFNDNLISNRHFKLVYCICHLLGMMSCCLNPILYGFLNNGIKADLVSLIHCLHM
How it was run: as §1

human Y1 receptor = biological target: T3, human Y1 receptor (Homo sapiens, UniProt P25929); experiment: as above; assay type: cell-based
T3 sequence (P25929 1-384): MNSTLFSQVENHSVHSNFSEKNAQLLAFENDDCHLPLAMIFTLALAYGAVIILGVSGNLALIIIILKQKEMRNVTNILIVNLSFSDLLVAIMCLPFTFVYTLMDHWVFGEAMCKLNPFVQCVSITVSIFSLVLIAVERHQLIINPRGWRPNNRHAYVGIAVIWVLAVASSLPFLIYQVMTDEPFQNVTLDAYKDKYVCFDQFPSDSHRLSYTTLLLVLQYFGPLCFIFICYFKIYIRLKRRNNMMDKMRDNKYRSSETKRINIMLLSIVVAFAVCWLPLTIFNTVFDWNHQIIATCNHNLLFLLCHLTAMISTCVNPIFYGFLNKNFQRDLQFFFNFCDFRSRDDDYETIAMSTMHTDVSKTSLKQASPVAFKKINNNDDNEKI
Source text: The NPY family of G-protein coupled receptors include Y1, Y2, Y4, and Y5 in humans and rats. […] Following agonist binding, the receptor-G protein complex activates a downstream intracellular signaling cascade which leads to inhibition of adenylate cyclase and a reduction in intracellular cAMP levels.
HEK-CNG cells stably expressing the human or rat Y1, Y2, Y4 or Y5 receptors (Codex Biosolutions) were used to characterize the functional potency of peptide agonists using the ActOne™ membrane potential dye kit (Codex Biosolutions). In addition to each NPY receptor, each cell line encodes a proprietary exogenous Cyclic Nucleotide-Gated (CNG) channel (Codex Biosolutions). The channel is activated by elevated intracellular levels of cAMP, resulting in ion flux and cell membrane depolarization which can be detected with a calcium sensitive dye or fluorescent membrane potential (MP) dye. Cells were carried in growth media containing 90% DMEM, 10% FBS, 250 mcg/mL G418 and 1 mcg/mL puromycin for no more than 15 passages.
Prior to testing, cells were counted and dispensed at 14,000 cells per well (Y1, Y4 and Y5) or 28,000 cells per well (Y2) into black 384 well Poly-D-Lysine plates at 20 mcL per well. Covered plates were then incubated at room temperature for 30 minutes followed by an overnight incubation at 37° C. in 5% C02. The following day, media was removed and wells were washed once with 40 mcL Dulbecco's phosphate buffered saline. […] Ten microliters of experimental peptide or peptide standard was added in triplicate to wells and incubated for 50 minutes at room temperature in the dark. Following this incubation step, plates were read again as before (final read).
NPY receptor activation, leading to a reduction in intracellular cAMP levels, is detected as a decrease in isoproteranol induced fluorescent signal. Peptide standard and experimental values were initially transformed in excel using the formula: final read/initial read. […] Normalized data was analyzed from triplicate tests and used to estimate the EC50 for each test peptide on each receptor. Data was fit in GraphPad Prism software (v8.2.1) using a 3-parameter logistic curve model: Y=Bottom+(Top−Bottom)/(1+10^((LogEC50−X))). EC50 values were converted to pEC50 values using the formula: pEC50=−Log(EC50).

[3] = cited from earlier work

| Compound | Stability (37° C./RT, T0: Mar. 25, 2020) [2] | pEC50 (human Y2 receptor) | pEC50 (human Y5 receptor) | Solubility (in Water, RT) [1] | further results |
| --- | --- | --- | --- | --- | --- |
| CC(C)C[C@H](NC(=O)[C@H](CC(=O)O)NC(=O)[C@H](CCCCN)NC(=O)[C@H](Cc1ccc(O)cc1)NC(=O)[C@H](Cc1ccc(O)cc1)NC(=O)[C@H](CCCNC(=N)N)NC(=O)[C@H](CC(N)=O)NC(=O)[C@H](Cc1c[nH]c2ccccc12)NC(=O)[C@H](CCC(=O)O)NC(=O)[C@H](CCC(=O)O)NC(=O)[C@@H]1CCCN1C(=O)[C@H](CO)NC(=O)[C@H](C)NC(=O)[C@H](CC(=O)O)NC(=O)[C@H](CCCCNC(=O)CC[C@H](NC(=O)CC[C@H](NC(=O)CCCCCCCCCCCCCCCCCCC(=O)O)C(=O)O)C(=O)O)NC(=O)CNC(=O)[C@@H]1CCCN1C(=O)[C@H](CCCCN)NC(=O)[C@H](CCC(=O)O)NC(=O)[C@@H]1CCCN1C(=O)[C@H](CCCCN)NC(=O)[C@@H]1CCCN1)C(=O)N[C@@H](CCCNC(=N)N)C(=O)N[C@@H](Cc1c[nH]cn1)C(=O)N[C@@H](Cc1ccc(O)cc1)C(=O)N[C@@H](CC(C)C)C(=O)N[C@@H](CC(N)=O)C(=O)N[C@@H](Cc1c[nH]c2ccccc12)C(=O)N[C@@H](CC(C)C)C(=O)N[C@H](C(=O)N[C@@H](CCCNC(=N)N)C(=O)N[C@@H](CCC(N)=O)C(=O)N[C@@H](CCCNC(=N)N)C(=O)N[C@@H](Cc1ccccc1)C(N)=O)[C@@H](C)O [Compound A19] | 88.8 | 10.50 | 8.70 |  | solubility ([1]; DI water, read-out: Solubility (in Water, RT)): 59 mg/mL |
| CC(C)C[C@H](NC(=O)[C@H](CC(=O)O)NC(=O)[C@H](CCCCN)NC(=O)[C@H](Cc1ccc(O)cc1)NC(=O)[C@H](Cc1ccc(O)cc1)NC(=O)[C@H](CCCNC(=N)N)NC(=O)[C@H](CC(N)=O)NC(=O)[C@H](Cc1c[nH]c2ccccc12)NC(=O)[C@H](CCC(=O)O)NC(=O)[C@H](CCCCN)NC(=O)[C@@H]1CCCN1C(=O)[C@H](CO)NC(=O)[C@H](C)NC(=O)[C@H](CC(=O)O)NC(=O)[C@H](CCC(=O)O)NC(=O)CNC(=O)[C@@H]1CCCN1C(=O)[C@H](CCCCNC(=O)CC[C@H](NC(=O)CC[C@H](NC(=O)CCCCCCCCCCCCCCCCCCC(=O)O)C(=O)O)C(=O)O)NC(=O)[C@H](CCC(=O)O)NC(=O)[C@@H]1CCCN1C(=O)[C@H](CCCCN)NC(=O)[C@@H]1CCCN1)C(=O)N[C@@H](CCCNC(=N)N)C(=O)N[C@@H](Cc1c[nH]cn1)C(=O)N[C@@H](Cc1ccc(O)cc1)C(=O)N[C@@H](CC(C)C)C(=O)N[C@@H](CC(N)=O)C(=O)N[C@@H](Cc1c[nH]c2ccccc12)C(=O)N[C@@H](CC(C)C)C(=O)N[C@H](C(=O)N[C@@H](CCCNC(=N)N)C(=O)N[C@@H](CCC(N)=O)C(=O)N[C@@H](CCCNC(=N)N)C(=O)N[C@@H](Cc1ccccc1)C(N)=O)[C@@H](C)O [Compound A72] |  | 10.80 | 8.80 |  | pEC50 (human Y1 receptor): 9.00 |
| CC(C)C[C@H](NC(=O)[C@H](CC(=O)O)NC(=O)[C@@H]1CCCCNC(=O)CC[C@H](NC(=O)[C@H](Cc2c[nH]c3ccccc23)NC(=O)[C@H](CCC(=O)O)NC(=O)[C@H](CCCCN)NC(=O)[C@@H]2CCCN2C(=O)[C@H](CO)NC(=O)[C@H](C)NC(=O)[C@H](CC(=O)O)NC(=O)[C@H](CCCCNC(=O)CC[C@H](NC(=O)CC[C@H](NC(=O)CCCCCCCCCCCCCCCCCC(=O)O)C(=O)O)C(=O)O)NC(=O)CNC(=O)[C@@H]2CCCN2C(=O)[C@H](CCCCN)NC(=O)[C@H](CCC(=O)O)NC(=O)[C@@H]2CCCN2C(=O)[C@H](CCCCN)NC(=O)[C@@H]2CCCN2)C(=O)N[C@@H](CCCNC(=N)N)C(=O)N[C@@H](Cc2ccc(O)cc2)C(=O)N[C@@H](Cc2ccc(O)cc2)C(=O)N1)C(=O)N[C@@H](CCCNC(=N)N)C(=O)N[C@@H](Cc1c[nH]cn1)C(=O)N[C@@H](Cc1ccc(O)cc1)C(=O)N[C@@H](CC(C)C)C(=O)N[C@@H](CC(N)=O)C(=O)N[C@@H](Cc1c[nH]c2ccccc12)C(=O)N[C@@H](CC(C)C)C(=O)N[C@H](C(=O)N[C@@H](CCCNC(=N)N)C(=O)N[C@@H](CCC(N)=O)C(=O)N[C@@H](CCCNC(=N)N)C(=O)N[C@@H](Cc1ccccc1)C(N)=O)[C@@H](C)O [Compound A39] (H-PKPEKPGK([γGlu-γGlu-C19 diacid])DASPKEWERYYKDLRHYLNWLTRQRF-NH2; lactam 16-20; N-terminus assumed) | 95.9 |  |  | 16 mg/mL |  |
| CC(C)C[C@H](NC(=O)[C@H](CC(=O)O)NC(=O)[C@@H]1CCCCNC(=O)C[C@H](NC(=O)[C@H](Cc2c[nH]c3ccccc23)NC(=O)[C@H](CCC(=O)O)NC(=O)[C@H](CCCCN)NC(=O)[C@@H]2CCCN2C(=O)[C@H](CO)NC(=O)[C@H](C)NC(=O)[C@H](CC(=O)O)NC(=O)[C@H](CCCCNC(=O)CC[C@H](NC(=O)CC[C@H](NC(=O)CCCCCCCCCCCCCCCCCC(=O)O)C(=O)O)C(=O)O)NC(=O)CNC(=O)[C@@H]2CCCN2C(=O)[C@H](CCCCN)NC(=O)[C@H](CCC(=O)O)NC(=O)[C@@H]2CCCN2C(=O)[C@H](CCCCN)NC(=O)[C@@H]2CCCN2)C(=O)N[C@@H](CCCNC(=N)N)C(=O)N[C@@H](Cc2ccc(O)cc2)C(=O)N[C@@H](Cc2ccc(O)cc2)C(=O)N1)C(=O)N[C@@H](CCCNC(=N)N)C(=O)N[C@@H](Cc1c[nH]cn1)C(=O)N[C@@H](Cc1ccc(O)cc1)C(=O)N[C@@H](CC(C)C)C(=O)N[C@@H](CC(N)=O)C(=O)N[C@@H](Cc1c[nH]c2ccccc12)C(=O)N[C@@H](CC(C)C)C(=O)N[C@H](C(=O)N[C@@H](CCCNC(=N)N)C(=O)N[C@@H](CCC(N)=O)C(=O)N[C@@H](CCCNC(=N)N)C(=O)N[C@@H](Cc1ccccc1)C(N)=O)[C@@H](C)O [Compound A40] | 98.1 |  |  | 27 mg/mL |  |
| human amylin: 37-residue polypeptide hormone co-secreted with insulin from pancreatic β-cells (KCNTATCATQRLANFLVHSSNNFGAILSSTNVGSNTY; not fully specified (C-terminus, bridges); cysteine pairing not given here; UniProt P10997 34-70, looked up) |  |  |  |  | half-life in serum [3]: about 13 minutes |
